Three compounds from patent US9566342B2, “Compounds for treatment of heart failure” (SOLVOTRIN INNOVATIONS LIMITED, priority 2010, dated 2017) can be followed below.

Data set [1] concerns MMP-9. In words: PMA-stimulated CaCo2 cells, zymography of media, MMP-9. Format: cell-based.
For data set [2], the system named is MMP-2. In words: PMA-stimulated CaCo2 cells, zymography of media, MMP-2. Format: cell-based. The following applies: 150 uM.
The target of data set [3] is T1, MMP-2 (Homo sapiens, UniProt P08253).
T1 sequence (P08253 110-660): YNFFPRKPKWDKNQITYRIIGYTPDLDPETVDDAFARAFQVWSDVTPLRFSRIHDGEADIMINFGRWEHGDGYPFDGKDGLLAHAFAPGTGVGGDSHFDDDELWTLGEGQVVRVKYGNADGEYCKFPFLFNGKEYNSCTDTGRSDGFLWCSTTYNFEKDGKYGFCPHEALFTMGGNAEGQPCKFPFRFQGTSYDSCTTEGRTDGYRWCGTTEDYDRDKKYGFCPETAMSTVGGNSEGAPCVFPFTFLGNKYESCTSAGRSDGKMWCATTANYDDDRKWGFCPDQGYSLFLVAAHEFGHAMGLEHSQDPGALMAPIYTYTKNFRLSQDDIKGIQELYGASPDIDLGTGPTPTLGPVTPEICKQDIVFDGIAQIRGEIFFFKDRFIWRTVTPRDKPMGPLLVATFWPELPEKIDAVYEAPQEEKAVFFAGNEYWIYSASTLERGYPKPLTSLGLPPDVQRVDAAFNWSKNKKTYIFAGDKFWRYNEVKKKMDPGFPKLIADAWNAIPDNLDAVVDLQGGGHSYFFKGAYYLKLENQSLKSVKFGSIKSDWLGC
In words: Model of direct enzyme inhibition, MMP-2 (IC50). The data set is classed as biochemical.

Data set [4] deals with T2, MMP-9 (Homo sapiens, UniProt P14780). In words: Model of direct enzyme inhibition, MMP-9 (IC50). The data set is classed as biochemical.
T2 sequence (P14780 94-707): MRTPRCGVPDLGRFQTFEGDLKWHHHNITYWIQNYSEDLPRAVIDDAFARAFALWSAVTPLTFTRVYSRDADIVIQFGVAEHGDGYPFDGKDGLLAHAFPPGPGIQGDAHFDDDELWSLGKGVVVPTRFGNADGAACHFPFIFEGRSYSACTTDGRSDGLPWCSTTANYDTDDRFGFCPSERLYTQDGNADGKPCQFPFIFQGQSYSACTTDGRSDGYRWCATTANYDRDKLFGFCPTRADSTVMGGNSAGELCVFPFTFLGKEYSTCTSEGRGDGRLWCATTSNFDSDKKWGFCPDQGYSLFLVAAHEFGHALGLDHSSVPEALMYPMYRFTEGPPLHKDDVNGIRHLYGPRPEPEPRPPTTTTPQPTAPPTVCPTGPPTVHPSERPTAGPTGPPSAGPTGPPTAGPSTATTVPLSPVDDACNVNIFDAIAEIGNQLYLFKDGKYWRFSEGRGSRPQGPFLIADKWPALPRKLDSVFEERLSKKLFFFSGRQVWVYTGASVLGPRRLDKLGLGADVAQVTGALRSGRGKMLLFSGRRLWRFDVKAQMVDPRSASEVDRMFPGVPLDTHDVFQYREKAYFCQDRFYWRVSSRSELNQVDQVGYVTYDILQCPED
In data set [5] the target is MMP-8 (Homo sapiens, UniProt P22894). In words: Direct enzyme inhibition, MMP-8. Format: biochemical.
MMP-8, sequence (P22894 101-467, species assumed): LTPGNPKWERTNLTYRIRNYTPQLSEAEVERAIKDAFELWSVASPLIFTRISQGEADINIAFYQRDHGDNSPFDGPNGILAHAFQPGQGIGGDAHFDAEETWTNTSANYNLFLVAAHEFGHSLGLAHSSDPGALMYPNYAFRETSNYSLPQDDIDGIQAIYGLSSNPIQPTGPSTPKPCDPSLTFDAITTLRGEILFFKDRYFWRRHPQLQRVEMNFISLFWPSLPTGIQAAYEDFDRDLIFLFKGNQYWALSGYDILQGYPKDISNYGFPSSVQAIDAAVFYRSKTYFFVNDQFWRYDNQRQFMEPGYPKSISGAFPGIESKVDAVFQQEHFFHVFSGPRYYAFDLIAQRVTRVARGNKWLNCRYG
The target in data set [6] is MMP-13 (Homo sapiens, UniProt P45452). In words: Direct enzyme inhibition, MMP-13. The data set is classed as biochemical.
Data set [7] concerns the target T3, MMP-1 (Homo sapiens, UniProt P03956).
T3 sequence (P03956 100-469): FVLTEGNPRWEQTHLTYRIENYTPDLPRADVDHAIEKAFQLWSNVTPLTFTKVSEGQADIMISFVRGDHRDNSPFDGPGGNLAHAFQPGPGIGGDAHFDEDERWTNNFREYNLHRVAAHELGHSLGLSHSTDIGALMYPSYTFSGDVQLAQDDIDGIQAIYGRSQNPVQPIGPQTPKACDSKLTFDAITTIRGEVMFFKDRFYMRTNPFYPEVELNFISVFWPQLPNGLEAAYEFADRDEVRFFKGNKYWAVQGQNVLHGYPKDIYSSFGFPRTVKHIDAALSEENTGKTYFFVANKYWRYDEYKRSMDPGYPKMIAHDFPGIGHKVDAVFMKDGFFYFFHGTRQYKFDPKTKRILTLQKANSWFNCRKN
In words: Direct enzyme inhibition, MMP-1. The data set is classed as biochemical.

Data set [8] has as its system MMP-9 mRNA. In words: TNFα treated human cardiac fibroblasts, MMP-9 transcription (QPCR). Format: cell-based. The following applies: HCF.
The test system of data set [9] is MMP-2 mRNA. In words: TNFα treated human cardiac fibroblasts, MMP-2 transcription (QPCR). The data set is classed as cell-based. As to conditions: HCF, 10 ng/mL TNFα 72 hours, 75 or 150 μM.
For data set [10], the system named is Human Ventricular Cardiac Fibroblast (HCF). In words: Human ventricular cardiac fibroblast proliferation (CellTitre-Glo). Format: cell-based.
Data set [11] concerns Human Peripheral Blood mononuclear cells (PBMC) stimulated with TNF-α. In words: MMPs, TIMP-1 and inflammatory markers in supernatants of PBMC stimulated with TNF-α. Format: cell-based.
Data set [12] concerns MMP-9. In words: Total MMP-9 levels on repeated oral administration in non-human primates. Format: in vivo, cynomolgus monkeys.
For data set [13], the system named is MMP-2. In words: PMA stimulated breast cancer cell model (HT1080 cells), pro-MMP-2 / MMP-2. The data set is classed as cell-based.
The test system of data set [14] is human colon cancer cells. In words: Colon cancer cell invasiveness, in vitro model. The following applies: low dose, FIG. 10. The data set is classed as cell-based.
Data set [15] deals with T1, MMP-2. In words: Direct inhibition of recombinant MMP-2, fluorogenic substrate. Format: biochemical. The arrangement: purchased R&D Systems, Ireland. As to conditions: read-out: inhibition of recombinant human MMP-2.
In data set [16] the target is T2, MMP-9. In words: Direct inhibition of recombinant MMP-9, fluorogenic substrate. The data set is classed as biochemical. The arrangement: purchased R&D Systems, Ireland. The following applies: read-out: inhibition of recombinant human MMP-9.
A short description of data set [17]: Blood pressure in non-human primates. As to conditions: cynomolgus monkeys, over dosing period.
Where [18] appears, read: 75 μM, 24 hours, TNFα, mean ± SEM.
[19] abbreviates: 150 μM, 24 hours, TNFα, mean ± SEM.

The IC50 is the concentration that inhibits the measured activity by half. High values mean a need for much substance, low ones inhibition by little substance. Broadly, the inhibition is how much of the control response was suppressed. For orientation: melting point means the temperature, or range, at which the solid turns liquid. `C[C@H]1c2cccc(O)c2C(=O)C2=C(O)[C@]3(O)C(=O)C(C(=O)NCN(CCO[N+](=O)[O-])CCO[N+](=O)[O-])=C(O)[C@@H](N(C)C)[C@@H]3[C@@H](O)[C@@H]21` [SI1004, amido-N—[N,N-diethylnitrate-aminomethyl]-α-6-deoxy-5-oxytetracycline] yielded a melting point of 101 to 104 °C. The “suppression of MMP-9 activity relative to PMA positive control” value in data set [1] is given as “approximately 60%”. Besides, in [2], the “inhibition of MMP-2 activity relative to PMA positive control” value was “about 40%”. In data set [3], this compound gave an IC50 of 9.4 µM. The compound further had an IC50 in [4] of 25 µM. Moreover, the inhibition at 10 µM in [5] (10 μM) is roughly 26%. Moreover, in data set [5] (100 μM), the inhibition at 100 µM is roughly 60.7%. This compound also gave an inhibition at 10 µM in data set [6] (10 μM) of roughly 46%. Further, the MMP-13 inhibition entry in data set [6] (at 1000 (so in the source)) is reported as “around 74.5%”. In data set [7] (10 μM), this compound showed an inhibition at 10 µM of roughly 19%. Further, the inhibition at 100 µM in data set [7] (100 μM) is roughly 63%. Also, the “MMP-9 protein levels in treated cell supernatants” value in [8] is “below the lower limit of quantification”. Further, the “TNFα induced upregulation of MMP-9 mRNA” value in [8] (10 ng/mL TNFα 72 hours, 75 or 150 μM) is “significantly inhibited”. Also, in [9], the “MMP-2 mRNA expression” value was “no significant effects”. Further, the “inhibition of HCF proliferation” value in data set [10] (75-150 μM, 2% FCS following serum starvation for 72 hours) was “significant inhibition”. In data set [10] (150 micromolar), the “inhibition of cardiac fibroblast proliferation (admixture study, FIG. 13)” value is reported as “significantly more effective at inhibiting cardiac fibroblast proliferation”. The “MMP-3 in in vitro inflammatory cell models” value in [11] is recorded as “does not reduce MMP-3”. Also, in data set [11] (setting [18]), the “Interleukin-1β protein level in PBMC supernatant” value is recorded as 27.8 ± 6.6 ng/mL, the “Interleukin-4 protein level in PBMC supernatant” value was 10.8 ± 0.2 ng/mL, the “Interleukin-5 protein level in PBMC supernatant” value was 35.8 ± 8.4 ng/mL and the “Interleukin-8 protein level in PBMC supernatant” value is 10960 ± 484 ng/mL. Besides, in [11] (setting [18]), the “Interleukin-10 protein level in PBMC supernatant” value amounted to 125.6 ± 32.2 ng/mL, the “Interleukin-13 protein level in PBMC supernatant” value is 80.8 ± 24.8 ng/mL, the “MMP-1 protein level in PBMC supernatant” value worked out at 208 ± 102 ng/mL and the “MMP-2 protein level in PBMC supernatant” value worked out at 120.4 ± 86.4 ng/mL. In addition, in data set [11] (setting [18]), the “MMP-3 protein level in PBMC supernatant” value was 8.7 ± 5.2 ng/mL and the “MMP-10 protein level in PBMC supernatant” value worked out at 26.6 ± 18.4 ng/mL. In [11] (setting [19]), the “Interleukin-5 protein level in PBMC supernatant” value was 35.6 ± 6.4 ng/mL, the “Interleukin-10 protein level in PBMC supernatant” value is 142.0 ± 55.2 ng/mL, the “Interleukin-13 protein level in PBMC supernatant” value is listed as 89.4 ± 13.2 ng/mL and the “MMP-1 protein level in PBMC supernatant” value was 171 ± 66.0 ng/mL. Also, in data set [11] (setting [19]), the “MMP-2 protein level in PBMC supernatant” value is 95.4 ± 52 ng/mL, the “MMP-3 protein level in PBMC supernatant” value came to 9.1 ± 6.1 ng/mL and the “MMP-10 protein level in PBMC supernatant” value is reported as 29.0 ± 14.6 ng/mL. The “total plasma MMP-9, median AUC” value in data set [12] (NHPs, daily orogastric gavage for 72 hours, n=6) was determined as 4.3 µg·h/mL. The “change in MMP-9 from baseline to 72 hours” value in data set [12] (cynomolgus monkeys, oral gavage once daily for three days, n=6 per group) is on record as “significantly reduced compared to doxycycline”. Moreover, in [12] (cynomolgus monkeys, oral, daily for 3 days, vs doxycycline), the “suppression of total serum MMP-9 protein levels” value is “more effective suppression”. In addition, in [13], the “conversion of pro-MMP-2 to active MMP-2 (activation of MMP-2)” value is reported as “do not appear to activate MMP-2”. Further, the “colon cancer cell invasiveness” value in data set [14] is recorded as “more effective in reducing tumour cell invasiveness”. In [15], the inhibition at 100 µM came to 29.7 ± 2.1%. Also, the inhibition at 100 µM in [16] was 26.6 ± 1.7%. Besides, in data set [17], the diastolic blood pressure was determined as 56.4±3.8 mmHg and the “mean systolic blood pressure” value was 101±6.3 mmHg.

Take “Amido-N-[3-(Nitrooxymethyl)Piperidinomethyl]-α-6-Deoxy-5-Oxytetracycline [SI1005]”: the concentration for half-maximal inhibition (IC50) in data set [3] is 63 µM; in data set [4], 139 µM. Further, the MMP-8 inhibition is roughly 16.9% in data set [5] (10 μM) and “around 53.8%” in data set [5] (100 μM). Further, the MMP-13 inhibition in data set [6] (10 μM) was roughly 6.6%; in [6] (100 μM), “around 28.4%”. For the same compound, the MMP-1 inhibition in data set [7] (10 μM) was roughly 13%; in data set [7] (100 μM), “around 22%”. Moreover, the “change in MMP-9 from baseline to 72 hours” value in data set [12] (cynomolgus monkey, in vivo, po) was “significantly reduced compared to doxycycline and SI1004”. The “conversion of pro-MMP-2 to active MMP-2 (activation of MMP-2)” value in [13] is “do not appear to activate MMP-2”. For the same compound, in data set [14], the “colon cancer cell invasiveness” value is listed as “more effective in reducing tumour cell invasiveness”.

Consider `C[C@H]1c2cccc(O)c2C(=O)C2=C(O)[C@]3(O)C(=O)C(C(=O)NCN4CCC(CO[N+](=O)[O-])CC4)=C(O)[C@@H](N(C)C)[C@@H]3[C@@H](O)[C@@H]21` [Example 7, amido-N-[4-(nitrooxymethyl)piperidinomethyl]-α-6-deoxy-5-oxytetracycline], for which the melting point lay in the range of 130 to 132 °C.
